Converted amounts (≈) assume the structure as drawn. “And” between values parts separate entries of the source, which are not always exact repeats. Identical values can stand only once.
Columns and labels:
[1] = test system: MRSA NRS 129; assay: Broth microdilution MIC, MRSA NRS 129; type: cell-based, S. aureus; settings: Staphylococcus aureus
Method: (§1) The data is given in supporting information (Table S5). Before starting the experiment, a single colony was picked from MHA plate, inoculated in MHBII and incubated overnight at 37 °C with shaking for 18–24 h to get the starter culture. Antibiotic susceptibility testing was conducted according to the CLSI (Clinical & Laboratory Standards Institute) guidelines using the broth microdilution assay. 10 mg/mL stock solutions of test compounds were prepared in DMSO. Bacterial cultures were inoculated in MHBII and optical density (OD) was measured at 600 nm, followed by dilution to achieve ~10^6 CFU/mL. The compounds were tested from 64 to 0.5 mg/L in two-fold serial diluted fashion with 2.5 μL of each concentration added to well of a 96-well round bottom microtiter plate. Later, 97.5 μL of bacterial suspension was added to each well containing either test compound or appropriate controls. […] The MIC is defined as the lowest concentration of the compound at which there is absence of visible growth. For each test compound, MIC determinations were carried out independently three times using duplicate samples.

[2] = test system: methicillin-resistant S. aureus (MRSA) COL; assay: MIC assay, MRSA COL; type: cell-based, Staphylococcus aureus; settings: Staphylococcus aureus, MRSA
[3] = test system: VRSA VRS 1; assay: Broth microdilution MIC, VRSA VRS 1; type: cell-based, S. aureus; settings: Staphylococcus aureus, VRSA
Method: as §1

[4] = test system: S. aureus ATCC 29213; assay: Post antibiotic effect (PAE); type: cell-based; settings: for Time for 1 log10 increase in bacterial cfu count: 1 h exposure
Method: Post antibiotic effect (PAE) was determined as follows. […] Following incubation, cultures were centrifuged and washed twice with pre-warmed MHBII to remove any traces of antibiotics. Finally, cells were resuspended in drug-free MHBII and incubated further at 37 °C. Samples were taken every 1 h, serially diluted, and plated on tryptic soy agar (TSA) for enumeration of CFU. […] CFU observed immediately after the removal of the drug, and C in a similarly treated drug-free control.

[5] = test system: MRSA NRS 192; assay: Broth microdilution MIC, MRSA NRS 192; type: cell-based, S. aureus; settings: Staphylococcus aureus
Method: as §1

[6] = test system: S. aureus ATCC 29213; assay: Drug interaction study (chequerboard assay); type: cell-based
Method: All compounds were freshly prepared for the experiment. […] Following incubation, the fractional inhibitory concentration index (FICI) was calculated with the formula FICI = […], whereby FICA = MIC of drug A in combination/MIC of drug A alone and FICB = MIC of drug B in combination/MIC of drug B alone. A drug combination is considered synergistic when ∑FICI is ≤0.5, indifferent when ∑FICI is >0.5 to 4, and antagonistic when ∑FICI is >4.

[7] = test system: methicillin-sensitive Staphylococcus aureus (MSSA), clinical isolate; assay: MIC assay, MSSA clinical isolate; type: cell-based; settings: Staphylococcus aureus, MSSA
[8] = test system: VRSA VRS 4; assay: Broth microdilution MIC, VRSA VRS 4; type: cell-based, S. aureus; settings: Staphylococcus aureus, VRSA
Method: as §1

[9] = test system: 36th Passage S.aureus ATCC 29213 in the presence of Pt-1; assay: microbe, parasite or virus in culture; type: cell-based; settings: Staphylococcus aureus, ATCC29213
Method: The MICs of the passaged cultures were determined every 3 days and compared to that of wild type S. aureus ATCC 29213. MIC changes were recorded for 36 passages.

[10] = test system: MSSA ATCC 29213; assay: Broth microdilution MIC, MSSA ATCC 29213; type: cell-based, S. aureus; settings: Staphylococcus aureus
Method: as §1

[11] = test system: MRSA NRS 119; assay: Broth microdilution MIC, MRSA NRS 119; type: cell-based, S. aureus; settings: Staphylococcus aureus
Method: as §1

[12] = test system: MRSA NRS 186; assay: Broth microdilution MIC, MRSA NRS 186; type: cell-based, S. aureus; settings: Staphylococcus aureus
Method: as §1

[13] = test system: MRSA NRS 198; assay: Broth microdilution MIC, MRSA NRS 198; type: cell-based, S. aureus; settings: Staphylococcus aureus
Method: as §1

[14] = test system: Bacillus subtilis MW168; assay: MIC assay, B. subtilis MW168; type: cell-based; settings: Bacillus subtilis, MW168
[15] = test system: MRSA NRS 100; assay: Broth microdilution MIC, MRSA NRS 100; type: cell-based, S. aureus; settings: Staphylococcus aureus
Method: as §1

[16] = test system: MRSA NRS 194; assay: Broth microdilution MIC, MRSA NRS 194; type: cell-based, S. aureus; settings: Staphylococcus aureus
Method: as §1

[17] = test system: MRSA NRS 193; assay: Broth microdilution MIC, MRSA NRS 193; type: cell-based, S. aureus; settings: Staphylococcus aureus
Method: as §1

[18] = test system: MRSA NRS 191; assay: Broth microdilution MIC, MRSA NRS 191; type: cell-based, S. aureus; settings: Staphylococcus aureus
Method: as §1

[19] = test system: VRSA VRS 12; assay: Broth microdilution MIC, VRSA VRS 12; type: cell-based, S. aureus; settings: Staphylococcus aureus, VRSA
Method: as §1

[20] = test system: S. aureus ATCC 29213; assay: Murine superficial skin infection model; type: in vivo; settings: topical 2% cream, twice daily for 4 days, Swiss mice
Method: The in vivo efficacy of Pt1 was determined in a superficial skin infection model. Briefly, male Swiss mice, 4–6 weeks old, weighing ∼22–25 g, were used throughout the study. Mice were caged alone in an individually vented cage (IVC) to check cross-contamination and to maintain aseptic conditions throughout the experiment. Ketamine and xylazine were prepared in distilled water, 40 mg/kg and 8 mg/kg of body weight, respectively, and injected intraperitoneally (IP) as a mixture of 100 μL in each mouse for anaesthesia. Then, we proceeded with the removal of fur by applying depilatory cream. The area was cleaned with sterile distilled water. Approximately 2 cm^2 of skin area was scratched until it became visibly reddened and glistening without any bleeding. For bacterial infection, a 10 μL droplet containing 10^7 CFU/mL of S. aureus ATCC 29213 was applied to the reddened area of skin. To confirm the infection, post 4 h, untreated mice were sacrificed, skin homogenized, and various dilutions of the treatment groups (6 mice per group) were plated on TSA plates. […] Henceforth, the drug regimen was comprised of twice daily application (in the morning and the evening, with an 8 h interval) for 4 days. Control mice were regularly treated with 25–30 mg each of 2% fusidic acid (LEO Pharma, Ballerup, Denmark), 2% infuzide, and base (vehicle). […]

Q: How did the MIC [1] turn out when CN[C@H](CC(C)C)C(=O)N[C@H]1C(=O)N[C@@H](CC(N)=O)C(=O)N[C@H]2C(=O)N[C@H]3C(=O)N[C@H](C(=O)N[C@H](C(=O)O)c4cc(O)cc(O)c4-c4cc3ccc4O)[C@H](O)c3ccc(c(Cl)c3)Oc3cc2cc(c3O[C@@H]2O[C@H](CO)[C@@H](O)[C@H](O)[C@H]2O[C@H]2C[C@](C)(N)[C@H](O)[C@H](C)O2)Oc2ccc(cc2Cl)[C@H]1O [Van, Vancomycin] was run?
A: 0.67 µM (≈ 0.971 µg/mL)

Q: What about the MIC [2] of the same molecule?
A: 0.86 µM (≈ 1.25 µg/mL)

Q: What about the MIC [3] of the same molecule?
A: > 43.1 µM

Q: And the PAE ([4]; 1x MIC)?
A: ~ 2.5 h

Q: What about the “Time for 1 log10 increase in bacterial cfu count” value (shortened to “Time for 1 log10 increase”) ([4]; 1x MIC) of the same molecule?
A: ~ 5 h

Q: And the PAE ([4]; 5x MIC)?
A: ~ 2.5 h

Q: And the “Time for 1 log10 increase” value ([4]; 5x MIC)?
A: ~ 5 h

Q: And the “Time for 1 log10 increase” value ([4]; 10x MIC)?
A: ~ 5 h

Q: What about the PAE ([4]; 10x MIC, listed as Vancomycin) of the same molecule?
A: ~ 2.5 h

Q: And the PAE ([4]; 10x MIC, listed as vancomycin)?
A: 2.5 h

Q: And the MIC [5]?
A: 0.67 to 1.34 µM (≈ 0.971 to 1.94 µg/mL)

Q: What about the MIC ([6]; Staphylococcus aureus, ATCC29213) of the same molecule?
A: 1 µg/mL

Q: And the “FIC B” value ([6]; antibiotic in combination with Pt1 / alone)?
A: 1

Q: What about the “FIC (FICA+FICB)” value ([6]; combination with Pt1) of the same molecule?
A: 2

Q: What about the Interference ([6]; combination with Pt1, synergistic ≤0.5, indifferent >0.5 to 4, antagonistic >4) of the same molecule?
A: no interaction

Q: And the MIC [7]?
A: 0.86 µM (≈ 1.25 µg/mL)

Q: What about the MIC [8] of the same molecule?
A: > 43.1 µM

Q: What about the MIC [9] of the same molecule?
A: 1 µg/mL (≈ 0.69 µM)

Q: What about the MIC [10] of the same molecule?
A: 1 µg/mL and 0.67 µM

Q: And the MIC [11]?
A: 1.34 µM (≈ 1.94 µg/mL)

Q: What about the MIC [12] of the same molecule?
A: 0.67 µM (≈ 0.971 µg/mL)

Q: And the MIC [13]?
A: 1.34 µM (≈ 1.94 µg/mL)

Q: What about the MIC [14] of the same molecule?
A: < 0.22 µM

Q: What about the MIC [15] of the same molecule?
A: 1.34 µM (≈ 1.94 µg/mL)

Q: What about the MIC [16] of the same molecule?
A: 0.67 µM (≈ 0.971 µg/mL)

Q: And the MIC [17]?
A: 1.34 µM (≈ 1.94 µg/mL)

Q: And the MIC [18]?
A: 1.34 µM (≈ 1.94 µg/mL)

Q: What about the MIC [19] of the same molecule?
A: > 43.1 µM

Q: For CC(=O)O[C@H]1C[C@@]2(C)[C@@H](C[C@@H](O)[C@H]3[C@@]4(C)CC[C@@H](O)[C@@H](C)[C@@H]4CC[C@@]32C)/C1=C(\CCC=C(C)C)C(=O)O [fusidic acid], which “reduction in bacterial load compared to vehicle-treated group” value [20] is on record?
A: ~ 2.9 log10 CFU/g

Source: paper PMC13183915, “A platinum butterfly effect: small changes turn an anticancer drug into a non-toxic metalloantibiotic with in vivo efficacy” (npj Antimicrobials and Resistance, 2026)
